Where two headings read alike, the source gives them in different places.
What was measured:
Assay type in all cases: biochemical
human p110α/p85α (PI3Kα) = biological target: T1, human p110α/p85α (PI3Kα) (Homo sapiens, UniProt P42336); experiment: ADP-Glo in vitro lipid kinase assay, PI3Kα
T1 construct: Full-length human p110α was expressed either in a complex with full-length human p85α (for HTS, biochemistry and HDX-MS); 6xHis tag followed by TEV protease site (N); host or cells: Spodoptera frugiperda Sf9, baculovirus
T1 sequence (P42336 whole entry): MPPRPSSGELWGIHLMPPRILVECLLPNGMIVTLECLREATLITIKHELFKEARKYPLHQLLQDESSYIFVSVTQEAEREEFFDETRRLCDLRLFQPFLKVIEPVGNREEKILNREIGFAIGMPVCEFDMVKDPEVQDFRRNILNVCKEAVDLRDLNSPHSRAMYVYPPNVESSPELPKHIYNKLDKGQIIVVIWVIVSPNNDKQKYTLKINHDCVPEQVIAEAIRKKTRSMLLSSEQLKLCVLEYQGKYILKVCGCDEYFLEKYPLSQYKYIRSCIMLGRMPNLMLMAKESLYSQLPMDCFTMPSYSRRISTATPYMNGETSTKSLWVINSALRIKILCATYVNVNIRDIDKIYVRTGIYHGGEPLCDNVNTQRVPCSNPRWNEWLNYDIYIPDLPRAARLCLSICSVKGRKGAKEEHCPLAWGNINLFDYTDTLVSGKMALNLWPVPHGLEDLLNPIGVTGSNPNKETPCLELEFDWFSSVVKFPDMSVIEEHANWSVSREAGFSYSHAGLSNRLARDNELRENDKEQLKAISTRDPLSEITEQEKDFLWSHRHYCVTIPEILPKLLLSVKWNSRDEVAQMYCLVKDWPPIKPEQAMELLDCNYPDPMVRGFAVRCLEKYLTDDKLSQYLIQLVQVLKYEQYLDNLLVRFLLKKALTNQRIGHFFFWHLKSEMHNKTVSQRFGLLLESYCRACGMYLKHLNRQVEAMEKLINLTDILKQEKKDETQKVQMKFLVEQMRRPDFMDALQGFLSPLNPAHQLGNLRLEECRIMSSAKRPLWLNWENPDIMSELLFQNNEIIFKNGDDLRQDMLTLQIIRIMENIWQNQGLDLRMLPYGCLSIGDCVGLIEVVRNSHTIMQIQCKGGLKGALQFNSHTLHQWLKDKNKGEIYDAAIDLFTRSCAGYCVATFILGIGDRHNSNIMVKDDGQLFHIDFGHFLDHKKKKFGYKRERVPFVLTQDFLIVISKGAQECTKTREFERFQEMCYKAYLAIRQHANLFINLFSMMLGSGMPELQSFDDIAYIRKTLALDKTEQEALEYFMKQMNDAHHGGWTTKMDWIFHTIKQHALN
T1 sequence (P27986 whole entry partner): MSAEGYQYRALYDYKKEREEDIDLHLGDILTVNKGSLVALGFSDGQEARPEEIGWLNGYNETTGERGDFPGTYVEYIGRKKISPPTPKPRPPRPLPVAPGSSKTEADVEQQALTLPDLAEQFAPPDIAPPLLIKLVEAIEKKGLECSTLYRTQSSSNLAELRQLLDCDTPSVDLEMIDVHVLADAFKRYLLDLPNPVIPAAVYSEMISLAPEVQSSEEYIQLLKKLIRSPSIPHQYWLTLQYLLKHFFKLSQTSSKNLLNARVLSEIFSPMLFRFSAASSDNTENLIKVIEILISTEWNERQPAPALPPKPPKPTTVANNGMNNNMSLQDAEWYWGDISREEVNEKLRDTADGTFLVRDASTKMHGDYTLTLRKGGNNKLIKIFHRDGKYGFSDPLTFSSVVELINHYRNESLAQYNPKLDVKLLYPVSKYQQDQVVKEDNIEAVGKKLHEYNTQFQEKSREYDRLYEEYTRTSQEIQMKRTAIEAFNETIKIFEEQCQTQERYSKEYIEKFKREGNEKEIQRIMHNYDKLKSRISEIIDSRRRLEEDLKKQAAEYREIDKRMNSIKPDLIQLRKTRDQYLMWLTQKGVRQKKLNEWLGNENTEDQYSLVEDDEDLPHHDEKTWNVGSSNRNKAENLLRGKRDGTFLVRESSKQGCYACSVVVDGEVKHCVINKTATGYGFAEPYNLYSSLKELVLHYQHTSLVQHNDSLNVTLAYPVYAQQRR
Method: Kinase reactions were performed with ADP-Glo kinase assay kit (Promega Corporation). The enzyme, substrate and compounds were diluted in reaction buffer (20 mM HEPES, 50 mM NaCl, 50 mM KCl, 3 mM MgCl2, 1 mM EGTA, 1 mM TCEP, pH 7.4). Final concentrations of PI3Kα and PI3Kδ used were 25 nM and 50 nM for PI3Kβ. Liposomes (5% brain PI(4,5)P2, 20% brain phosphatidylserine, 45% brain phosphatidylethanolamine, 15% brain phosphatidylcholine, 10% cholesterol, 5% sphingomyelin (Avanti Polar Lipids)) were used at a final concentration of 1 mg/ml.
For the HTS, the reaction mixture contained 0.75 μl enzyme, 15 nl compound and/or pY and 0.75 μl of liposome substrate mixed with ATP. […] (GL Biochem, Shanghai Ltd). ATP was used at a final concentration of 500 μM unless otherwise stated. The final DMSO concentration in the assay was 1%. The experiments were performed at room temperature for 3 h using 1536-well white-polystyrene plates (Corning #3729) before addition of 2 μl of ADP-Glo R1 to terminate the reaction. The plate was incubated for 40 min, followed by addition of 4 μl of ADP-Glo R2 and incubated further for 60 min in the dark. Luminescence was read using an EnVision (PerkinElmer) plate reader. All analyses were performed using Genedata Screener.
For re-screening of HTS hits and routine compound profiling, the reaction mixture contained 2 μl PI3K enzyme, 2 μl compound and/or pY and 2 μl of liposome substrate mixed with ATP. ATP was used at a final concentration of 500 μM for PI3Kα and PI3Kβ and at 200 μM for PI3Kδ, unless otherwise stated. The final DMSO concentration in the assay was 1%. The experiments were performed at room temperature for 3 h using 384 white-polystyrene plates (Corning #3824) before addition of 6 μl of ADP-Glo R1 to terminate the reaction. The plate was incubated for 45 min, followed by addition of 12 μl of ADP-Glo R2 and incubated further for 60 min in the dark. Luminescence was read using a Sense (Hidex) plate reader. […] All analyses were performed using GraphPad Prism 7.
For characterisation of the effects of 1938 on in vitro PI3K enzymology, all reactions were performed at room temperature with 384 white-polystyrene plates (Corning #3574). The final DMSO concentration in the assay was between 0.5%-1.8%. The reaction mixture contained 2 μl PI3K enzyme, 2 μl compound and/or pY and 2 μl of liposome substrate mixed with ATP. ATP was used at a final concentration of 200 μM, unless otherwise stated.

[1] = biological target: protein kinases of the Z-LYTE panel (Homo sapiens, UniProt P14616); experiment: SelectScreen Z-LYTE kinase activity assay (SI Table 6)
Sequence of protein kinases of the Z-LYTE panel (Homo sapiens, UniProt P14616) (P14616 27-1297): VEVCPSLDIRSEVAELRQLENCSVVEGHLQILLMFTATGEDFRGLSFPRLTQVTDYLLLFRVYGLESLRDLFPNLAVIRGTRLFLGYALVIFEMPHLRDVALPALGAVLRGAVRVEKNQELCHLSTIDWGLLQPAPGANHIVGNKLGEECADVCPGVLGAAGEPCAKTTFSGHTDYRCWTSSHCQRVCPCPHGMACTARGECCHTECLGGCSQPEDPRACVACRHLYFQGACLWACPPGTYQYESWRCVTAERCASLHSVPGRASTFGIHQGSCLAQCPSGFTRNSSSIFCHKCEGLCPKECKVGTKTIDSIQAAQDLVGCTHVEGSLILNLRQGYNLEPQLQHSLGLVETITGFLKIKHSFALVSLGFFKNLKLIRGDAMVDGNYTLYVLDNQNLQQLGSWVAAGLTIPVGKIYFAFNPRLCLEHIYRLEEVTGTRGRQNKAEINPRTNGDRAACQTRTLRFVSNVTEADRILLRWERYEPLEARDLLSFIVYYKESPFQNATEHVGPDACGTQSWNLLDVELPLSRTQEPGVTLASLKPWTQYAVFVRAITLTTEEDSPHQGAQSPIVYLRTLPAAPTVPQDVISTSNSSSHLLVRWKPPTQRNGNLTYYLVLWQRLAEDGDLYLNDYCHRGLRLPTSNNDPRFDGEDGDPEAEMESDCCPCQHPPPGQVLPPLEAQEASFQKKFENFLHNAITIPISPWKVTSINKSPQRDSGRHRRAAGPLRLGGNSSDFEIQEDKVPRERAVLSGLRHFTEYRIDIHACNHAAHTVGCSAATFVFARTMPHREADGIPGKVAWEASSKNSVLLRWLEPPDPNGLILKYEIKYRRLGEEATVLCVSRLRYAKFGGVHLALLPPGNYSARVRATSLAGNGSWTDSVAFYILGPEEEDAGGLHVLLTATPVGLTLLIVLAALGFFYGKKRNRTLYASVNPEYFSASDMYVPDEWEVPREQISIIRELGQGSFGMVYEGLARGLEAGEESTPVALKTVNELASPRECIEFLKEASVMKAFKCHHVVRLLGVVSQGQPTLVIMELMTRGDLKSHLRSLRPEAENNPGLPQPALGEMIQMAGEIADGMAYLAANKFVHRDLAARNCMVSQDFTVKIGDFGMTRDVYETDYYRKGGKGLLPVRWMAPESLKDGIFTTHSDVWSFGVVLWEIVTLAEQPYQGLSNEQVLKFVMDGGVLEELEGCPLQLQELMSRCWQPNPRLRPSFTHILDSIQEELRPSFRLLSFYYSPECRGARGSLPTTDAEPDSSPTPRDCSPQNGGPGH
Method: (§1) 133 protein kinases and 7 lipid kinases were counterscreened, with 1938 used at 1 μM, using the Adapta, Lantha and Z-LYTE assays (SelectScreen Kinase Profiling Service; Thermofisher – experimental details of these assays can be found here: https://www.thermofisher.com/uk/en/home/industrial/pharma-biopharma/drug-discovery-development/target-and-lead-identification-and-validation/kinasebiology/kinase-activity-assays.html. The tree represention in KinMap[59] generated courtesy of Cell Signaling Technology, Inc. (www.cellsignal.com). mTORC1 (mTOR/RAPTOR/LST8) protein complex and ATM kinase and substrates were produced as previously described[57],[60]. Screening of 1938 was conducted using SuperSep Phos-Tag 50 μmol/l 100 x 100 x 6.6 mm 17-well (192-18001/199-18011) gels. For ATM assays, 100 nM ATM was incubated for 30 min at 30°C with 5 μM GST-p53 and 1 mM ATP, in the absence or presence of 200 μM 1938 in ATM Kinase Buffer (50 mM HEPES pH 7.5, 100 mM NaCl, 10% glycerol, 2 mM […], 5 mM MgCl2). As a positive control for ATM activation, the same reaction was carried out with 100 nM ATM/5 μM GST-p53/1 mM ATP in the presence of 100 nM Mre11-Rad50-Nbs1 (MRN) complex, a known activator of ATM[61]. For mTORC1 assays, 50 nM mTORC1 complex (mTOR/LST8/RAPTOR) was incubated for 3 h at 30°C with 15 μM 4E-BP1, 10 mM MgCl2 and 250 μM ATP, in the absence or presence of 200 μM 1938. As a ‘positive’ control, a higher concentration (150 nM) of mTORC1 complex (mTOR/LST8/RAPTOR) was incubated for 3 h at 30°C with 15 μM 4E-BP1, 10 mM MgCl2 and 250 μM ATP. Kinase reactions were quenched by addition of SDS-PAGE Loading Buffer (as per manufacturer’s instructions) and freezing at -20°C before being run on the Phos-tag gels at 150 V for 90 min. Gels were then stained using InstantBlue™ Coomassie, and quantified using BioRad Image Lab Software. Kinase assays were carried out in triplicate.

[2] = biological target: protein kinases of the Z-LYTE panel (Homo sapiens, UniProt P17612); experiment: as above
Method: as §1

[3] = biological target: protein kinases of the Z-LYTE panel (Homo sapiens, UniProt P22607); experiment: as above
Sequence of protein kinases of the Z-LYTE panel (Homo sapiens, UniProt P22607) (P22607 23-806): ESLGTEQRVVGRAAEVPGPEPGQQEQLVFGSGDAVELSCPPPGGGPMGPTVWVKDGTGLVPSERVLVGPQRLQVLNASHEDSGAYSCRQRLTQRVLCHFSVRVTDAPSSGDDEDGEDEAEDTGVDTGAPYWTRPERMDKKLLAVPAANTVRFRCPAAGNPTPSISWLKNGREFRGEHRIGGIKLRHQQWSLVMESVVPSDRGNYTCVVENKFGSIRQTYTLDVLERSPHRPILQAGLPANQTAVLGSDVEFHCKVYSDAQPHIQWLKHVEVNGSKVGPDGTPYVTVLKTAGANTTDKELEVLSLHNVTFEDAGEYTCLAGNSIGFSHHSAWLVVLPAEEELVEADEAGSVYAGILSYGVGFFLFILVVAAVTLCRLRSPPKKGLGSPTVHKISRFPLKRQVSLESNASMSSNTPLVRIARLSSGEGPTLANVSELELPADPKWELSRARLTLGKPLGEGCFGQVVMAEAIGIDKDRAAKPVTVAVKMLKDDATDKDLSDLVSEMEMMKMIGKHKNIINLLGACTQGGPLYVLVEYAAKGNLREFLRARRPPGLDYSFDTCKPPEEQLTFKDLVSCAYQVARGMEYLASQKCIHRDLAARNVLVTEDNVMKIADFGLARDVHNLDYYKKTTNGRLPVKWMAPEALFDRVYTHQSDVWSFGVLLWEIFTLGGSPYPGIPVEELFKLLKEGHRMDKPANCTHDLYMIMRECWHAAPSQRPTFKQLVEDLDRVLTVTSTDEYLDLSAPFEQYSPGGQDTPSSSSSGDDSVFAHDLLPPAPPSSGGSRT
Method: as §1

Q: Which “activation of PI3Kα” value (human p110α/p85α (PI3Kα)) does the source give for `CCN1CCN(c2ccc(Nc3cc(Nc4cccc5c4N(C(C)=O)CC5)ccn3)cc2)CC1` [Compound 1938] here?
A: The value was “activates”.

Q: What about the “PI3Kα activation in combination with pY” value (human p110α/p85α (PI3Kα); 1938 with a saturating concentration of pY) of the same compound?
A: The value was “synergistic PI3Kα activation”.

Q: What about the “Maximum activity relative to 1938” value (human p110α/p85α (PI3Kα); SI Table 3) of the same compound?
A: Its value is 100%.

Q: What about the EC50 (human p110α/p85α (PI3Kα); SI Table 3, 1938 analogues, read-out: EC50) of the same compound?
A: The EC50 was 58 ± 28 µM.

Q: What about the EC50 (human p110α/p85α (PI3Kα); read-out: EC50 for PI3Kα (in vitro lipid kinase activity)) of the same compound?
A: Its EC50 is ~60 µM.

Q: And the inhibition at 1 µM ([1]; read-out: % Inhibition Point 1)?
A: The inhibition at 1 µM was 9%.

Q: What about the inhibition at 1 µM ([1]; read-out: % Inhibition Point 2) of the same compound?
A: The inhibition at 1 µM was 8%.

Q: What about the inhibition at 1 µM ([1]; read-out: % Inhibition mean) of the same compound?
A: Its inhibition at 1 µM is 8%.

Q: And the inhibition at 1 µM ([2]; read-out: % Inhibition Point 1)?
A: The inhibition at 1 µM was 3%.

Q: What about the inhibition at 1 µM ([2]; read-out: % Inhibition Point 2) of the same compound?
A: Its inhibition at 1 µM is 5%.

Q: And the inhibition at 1 µM ([2]; read-out: % Inhibition mean)?
A: Its inhibition at 1 µM is 4%.

Q: What about the inhibition at 1 µM ([3]; read-out: % Inhibition Point 1) of the same compound?
A: The inhibition at 1 µM was 6%.

Q: What about the inhibition at 1 µM ([3]; read-out: % Inhibition Point 2) of the same compound?
A: The inhibition at 1 µM was 6%.

Q: And the inhibition at 1 µM ([3]; read-out: % Inhibition mean)?
A: Its inhibition at 1 µM is 6%.
